Source: patent US12371428B2 (Exelixis, Inc., priority 2019, dated 2025)
Where a name gives a salt, the structure may show the parent alone.

Key:
[1] = target: Human MER (residues 528-999) (Homo sapiens (Human), UniProt Q12866); assay: Human Mer kinase assay, HTRF KinEase (Example C-2); assay type: biochemical; conditions: protocol of Example C-2 (other compounds)
Summary of the method: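 HTRF KinEase TK assay with MER 528-999 (1 ng/well) in enzymatic buffer plus 5 mM MgCl2 and 1 mM DTT, biotinylated peptide substrate and ATP at Km (40 μM), 3% DMSO final, 60 min at room temperature. Stopped with EDTA detection mix (SA-XL665, TK antibody-Eu3+), read at 665/620 nm after 60 min; IC50 from 10-point 4-parameter fit, normalized to DMSO and 1 μM reference.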

[2] = target: Human MET (residues 956-1390) (Homo sapiens (Human), UniProt P08581); assay: Human Met kinase assay, HTRF KinEase (Example D-2); assay type: biochemical; conditions: protocol of Example D-2 (other compounds); read-out: c-Met IC50
Human MET (residues 956-1390), sequence (P08581 956-1390): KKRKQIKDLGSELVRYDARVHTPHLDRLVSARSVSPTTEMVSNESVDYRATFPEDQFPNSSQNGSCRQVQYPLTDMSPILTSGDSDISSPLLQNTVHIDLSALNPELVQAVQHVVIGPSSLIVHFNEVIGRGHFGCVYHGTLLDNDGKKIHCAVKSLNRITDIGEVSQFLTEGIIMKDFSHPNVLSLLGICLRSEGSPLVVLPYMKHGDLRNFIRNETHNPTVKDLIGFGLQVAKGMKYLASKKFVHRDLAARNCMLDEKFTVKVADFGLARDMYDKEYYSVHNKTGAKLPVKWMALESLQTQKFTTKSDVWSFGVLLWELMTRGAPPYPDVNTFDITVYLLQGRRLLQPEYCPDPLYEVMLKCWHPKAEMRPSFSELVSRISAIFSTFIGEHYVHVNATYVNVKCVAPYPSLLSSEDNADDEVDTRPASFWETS
Summary of the method: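 HTRF KinEase assay on MET residues 956-1390 (0.1 ng/well) in buffer with 5 mM MgCl2, 1 mM DTT and 1 mM MnCl2, with biotinylated peptide substrate, ATP at Km, 10 compound concentrations and 3% DMSO final, run 40 min at room temperature. The […] signal was normalized to DMSO and to 1 μM reference compound, and IC50 came from a 4-parameter logistic fit.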

[3] = target: KDR (phospho-KDR, VEGF165-stimulated HUVEC cells) (Homo sapiens (Human), UniProt P35968); assay: KDR autophosphorylation ELISA in HUVEC cells (Example G); assay type: cell-based; conditions: cellular activity; KDR autophosphorylation ELISA in HUVEC cells
KDR (phospho-KDR, VEGF165-stimulated HUVEC cells), sequence (P35968 20-1356): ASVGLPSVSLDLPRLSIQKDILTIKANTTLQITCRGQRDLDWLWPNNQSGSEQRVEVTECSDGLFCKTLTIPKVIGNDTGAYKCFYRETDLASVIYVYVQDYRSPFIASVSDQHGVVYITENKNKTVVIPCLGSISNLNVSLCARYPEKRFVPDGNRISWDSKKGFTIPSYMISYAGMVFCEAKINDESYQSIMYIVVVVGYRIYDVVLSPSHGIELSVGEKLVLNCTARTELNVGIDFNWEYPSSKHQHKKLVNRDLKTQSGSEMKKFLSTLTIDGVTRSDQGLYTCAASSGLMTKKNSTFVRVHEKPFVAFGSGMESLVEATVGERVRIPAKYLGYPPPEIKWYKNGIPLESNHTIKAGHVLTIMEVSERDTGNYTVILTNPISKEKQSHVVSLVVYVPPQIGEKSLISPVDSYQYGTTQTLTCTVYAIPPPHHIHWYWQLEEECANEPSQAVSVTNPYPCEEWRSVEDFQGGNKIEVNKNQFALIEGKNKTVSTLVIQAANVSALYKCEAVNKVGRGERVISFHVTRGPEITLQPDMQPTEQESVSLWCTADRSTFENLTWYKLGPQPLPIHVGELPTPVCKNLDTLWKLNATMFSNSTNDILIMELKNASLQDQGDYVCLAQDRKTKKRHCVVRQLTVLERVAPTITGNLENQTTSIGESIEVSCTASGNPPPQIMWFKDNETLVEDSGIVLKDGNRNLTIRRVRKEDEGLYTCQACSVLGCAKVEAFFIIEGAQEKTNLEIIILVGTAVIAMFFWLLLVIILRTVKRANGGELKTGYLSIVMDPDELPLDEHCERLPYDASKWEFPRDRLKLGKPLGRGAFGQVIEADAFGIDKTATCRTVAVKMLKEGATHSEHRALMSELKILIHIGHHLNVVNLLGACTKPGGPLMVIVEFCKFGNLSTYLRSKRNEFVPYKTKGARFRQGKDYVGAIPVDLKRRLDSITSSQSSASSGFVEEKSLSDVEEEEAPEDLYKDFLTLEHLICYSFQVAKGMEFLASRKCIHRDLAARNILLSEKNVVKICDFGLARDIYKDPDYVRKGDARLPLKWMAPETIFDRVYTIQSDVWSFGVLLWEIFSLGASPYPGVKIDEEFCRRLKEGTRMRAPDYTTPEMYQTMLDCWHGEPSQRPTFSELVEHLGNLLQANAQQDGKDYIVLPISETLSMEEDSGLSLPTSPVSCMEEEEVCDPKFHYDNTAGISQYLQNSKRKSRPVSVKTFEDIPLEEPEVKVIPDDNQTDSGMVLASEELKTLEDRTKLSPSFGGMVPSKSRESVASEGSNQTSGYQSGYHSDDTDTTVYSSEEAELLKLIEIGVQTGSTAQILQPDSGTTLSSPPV
Summary of the method: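 IC50 values derive from nonlinear curve fitting of phospho-KDR levels measured by ELISA and interpolated from a phosphoprotein standard. Beforehand, starved HUVECs received compound (0.3% DMSO vehicle) for one hour and were activated with VEGF165 at 100 ng/mL for 5 min.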

Human MER (residues 528-999), sequence (Q12866 528-999): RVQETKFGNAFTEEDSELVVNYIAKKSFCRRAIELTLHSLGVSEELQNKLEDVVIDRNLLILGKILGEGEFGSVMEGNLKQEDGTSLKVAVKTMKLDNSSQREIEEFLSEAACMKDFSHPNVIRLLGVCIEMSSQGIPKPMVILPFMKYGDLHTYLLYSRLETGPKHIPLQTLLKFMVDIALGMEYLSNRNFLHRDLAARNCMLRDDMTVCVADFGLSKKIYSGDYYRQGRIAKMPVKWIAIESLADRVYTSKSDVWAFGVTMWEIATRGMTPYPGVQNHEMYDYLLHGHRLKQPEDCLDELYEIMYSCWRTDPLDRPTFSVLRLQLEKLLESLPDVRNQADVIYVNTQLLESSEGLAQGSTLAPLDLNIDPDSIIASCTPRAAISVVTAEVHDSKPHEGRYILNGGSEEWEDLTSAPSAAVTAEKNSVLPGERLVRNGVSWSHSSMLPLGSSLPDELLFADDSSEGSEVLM

Structure (SMILES) | IC50 [1] [nM] | IC50 [2] [nM] | IC50 [3] [nM]
CCc1nc(C)c(-c2ccc(F)cc2)c(O)c1C(=O)Nc1ccc(Oc2ccnc3cc(OC)c(OC)nc23)cc1 [Compound 197, N-[4-[(6,7-Dimethoxy-1,5-naphthyridin-4-yl)oxy]phenyl]-2-ethyl-5-(4-fluorophenyl)-4-hydroxy-6-methylpyridine-3-carboxamide] | < 100 | < 100 | < 100
COc1cc2nccc(Oc3ccc(NC(=O)c4ncc(C)n(-c5ccc(F)cc5)c4=O)cc3)c2nc1OC [Compound 262, N-[4-[(6,7-Dimethoxy-1,5-naphthyridin-4-yl)oxy]phenyl]-4-(4-fluorophenyl)-5-methyl-3-oxopyrazine-2-carboxamide] | < 100 | < 100 | < 100
COCc1nc(C)c(-c2ccc(F)cc2)c(O)c1C(=O)Nc1ccc(Oc2ccnc3ccc(OC)nc23)c(F)c1 [Compound 189, N-[3-Fluoro-4-[(6-methoxy-1,5-naphthyridin-4-yl)oxy]phenyl]-5-(4-fluorophenyl)-4-hydroxy-2-(methoxymethyl)-6-methylpyridine-3-carboxamide] | < 100 | < 100 | < 100
COc1ccc2nccc(Oc3ccc(NC(=O)c4cnc(C)n(-c5ccc(F)cc5)c4=O)cc3F)c2n1 [Compound 232, N-[3-Fluoro-4-[(6-methoxy-1,5-naphthyridin-4-yl)oxy]phenyl]-1-(4-fluorophenyl)-2-methyl-6-oxopyrimidine-5-carboxamide] | < 100 | < 100 | 100 to 300
COCc1nc(C)c(-c2ccc(F)cc2C)c(O)c1C(=O)Nc1ccc(Oc2ccnc3cc(OC)c(OC)nc23)cc1 [Compound 192, N-[4-[(6,7-Dimethoxy-1,5-naphthyridin-4-yl)oxy]phenyl]-5-(4-fluoro-2-methylphenyl)-4-hydroxy-2-(methoxymethyl)-6-methylpyridine-3-carboxamide] | < 100 | < 100 | < 100
COc1cc2nccc(Oc3ccc(NC(=O)c4cn(C)c(CO)c(-c5ccc(F)cc5)c4=O)cc3)c2nc1OC [Compound 221, N-[4-[(6,7-Dimethoxy-1,5-naphthyridin-4-yl)oxy]phenyl]-5-(4-fluorophenyl)-6-(hydroxymethyl)-1-methyl-4-oxopyridine-3-carboxamide] | < 100 | < 100 | 100 to 300
CCn1cc(-c2ccc(F)cc2)c(=O)c(C(=O)Nc2ccc(Oc3ccnc4cc(OC)cnc34)c(F)c2)c1C [Compound 240, 1-Ethyl-N-[3-fluoro-4-[(7-methoxy-1,5-naphthyridin-4-yl)oxy]phenyl]-5-(4-fluorophenyl)-2-methyl-4-oxopyridine-3-carboxamide] | < 100 | < 100 | > 300
CCc1nc(C)c(-c2ccc(F)cc2)c(O)c1C(=O)Nc1ccc(Oc2ccnc3cc(OC)cnc23)c(F)c1 [Compound 180, 2-Ethyl-N-[3-fluoro-4-[(7-methoxy-1,5-naphthyridin-4-yl)oxy]phenyl]-5-(4-fluorophenyl)-4-hydroxy-6-methylpyridine-3-carboxamide] | < 100 | < 100 | < 100
COc1cc2nccc(Oc3ccc(NC(=O)c4cn(C(C)C)c(C)c(-c5cccc(F)c5)c4=O)cc3F)c2nc1OC [Compound 30, N-[4-[(6,7-Dimethoxy-1,5-naphthyridin-4-yl)oxy]-3-fluorophenyl]-5-(3-fluorophenyl)-6-methyl-4-oxo-1-propan-2-ylpyridine-3-carboxamide hydrochloride] | < 100 | < 100 | > 300
COc1ccc2nccc(Oc3ccc(NC(=O)c4c(C)n(C)cc(-c5ccc(F)cc5)c4=O)cc3F)c2n1 [Compound 243, N-[3-Fluoro-4-[(6-methoxy-1,5-naphthyridin-4-yl)oxy]phenyl]-5-(4-fluorophenyl)-1,2-dimethyl-4-oxopyridine-3-carboxamide] | < 100 | > 300 | > 300
COCc1nc(C)c(-c2ccc(F)cc2C)c(O)c1C(=O)Nc1ccc(Oc2ccnc3cc(OC)cnc23)cc1 [Compound 194, 5-(4-Fluoro-2-methylphenyl)-4-hydroxy-2-(methoxymethyl)-N-[4-[(7-methoxy-1,5-naphthyridin-4-yl)oxy]phenyl]-6-methylpyridine-3-carboxamide] | < 100 | < 100 | < 100
COc1cnc2c(Oc3ccc(NC(=O)c4cn(CC(F)(F)F)c(C)c(-c5ccc(F)cc5)c4=O)cc3F)ccnc2c1 [Compound 261, N-[3-Fluoro-4-[(7-methoxy-1,5-naphthyridin-4-yl)oxy]phenyl]-5-(4-fluorophenyl)-6-methyl-4-oxo-1-(2,2,2-trifluoroethyl)pyridine-3-carboxamide] | < 100 | < 100 | > 300

Other lines, results leading:

IC50 [1] [nM] | IC50 [2] [nM] | IC50 [3] [nM] | Structure (SMILES)
< 100 | < 100 | < 100 | COCCOc1nc2c(Oc3ccc(NC(=O)c4ccc(C)n(-c5ccc(F)cc5)c4=O)cc3F)ccnc2cc1OC [Compound 227, N-[3-Fluoro-4-[[7-methoxy-6-(2-methoxyethoxy)-1,5-naphthyridin-4-yl]oxy]phenyl]-1-(4-fluorophenyl)-6-methyl-2-oxopyridine-3-carboxamide]
< 100 | 100 to 300 | < 100 | CCc1nc(C)c(-c2ccc(F)cc2C)c(O)c1C(=O)Nc1ccc(Oc2ccnc3ccc(OC)nc23)c(F)c1 [Compound 206, 2-Ethyl-N-[3-fluoro-4-[(6-methoxy-1,5-naphthyridin-4-yl)oxy]phenyl]-5-(4-fluoro-2-methylphenyl)-4-hydroxy-6-methylpyridine-3-carboxamide]
< 100 | < 100 | < 100 | COc1cnc2c(Oc3ccc(NC(=O)c4c(C)ncc(-c5ccc(F)cc5)c4O)cc3)ccnc2c1 [Compound 236, 5-(4-Fluorophenyl)-4-hydroxy-N-[4-[(7-methoxy-1,5-naphthyridin-4-yl)oxy]phenyl]-2-methylpyridine-3-carboxamide]
< 100 | < 100 | > 300 | COc1ccc2nccc(Oc3ccc(NC(=O)c4cn(C)c(CO)c(-c5ccc(F)cc5)c4=O)cc3F)c2n1 [Compound 224, N-[3-Fluoro-4-[(6-methoxy-1,5-naphthyridin-4-yl)oxy]phenyl]-5-(4-fluorophenyl)-6-(hydroxymethyl)-1-methyl-4-oxopyridine-3-carboxamide]
< 100 | < 100 | < 100 | COCc1nc(C)c(-c2ccc(F)cc2)c(O)c1C(=O)Nc1ccc(Oc2ccnc3cc(OC)c(OC)nc23)cc1 [Compound 190, N-[4-[(6,7-Dimethoxy-1,5-naphthyridin-4-yl)oxy]phenyl]-5-(4-fluorophenyl)-4-hydroxy-2-(methoxymethyl)-6-methylpyridine-3-carboxamide]
< 100 | < 100 | 100 to 300 | COc1cc2nccc(Oc3ccc(NC(=O)c4cn(C)c(C)c(-c5ccccc5)c4=O)cc3F)c2nc1OC [Compound 36, N-[4-[(6,7-Dimethoxy-1,5-naphthyridin-4-yl)oxy]-3-fluorophenyl]-1,6-dimethyl-4-oxo-5-phenylpyridine-3-carboxamide hydrochloride]
< 100 | < 100 | > 300 | COc1ccc2nccc(Oc3ccc(NC(=O)c4cn(C)c(C)c(-c5ccc(F)cc5C)c4=O)cc3F)c2n1 [Compound 183, N-[3-Fluoro-4-[(6-methoxy-1,5-naphthyridin-4-yl)oxy]phenyl]-5-(4-fluoro-2-methylphenyl)-1,6-dimethyl-4-oxopyridine-3-carboxamide]
< 100 | < 100 | < 100 | CCc1nc(C)c(-c2ccc(F)cc2C)c(O)c1C(=O)Nc1ccc(Oc2ccnc3cc(OC)cnc23)cc1 [Compound 205, 2-Ethyl-5-(4-fluoro-2-methylphenyl)-4-hydroxy-N-[4-[(7-methoxy-1,5-naphthyridin-4-yl)oxy]phenyl]-6-methylpyridine-3-carboxamide]
< 100 | < 100 | > 300 | COc1cnc2c(Oc3ccc(NC(=O)c4nn(C)c(C)c(-c5ccc(F)cc5)c4=O)cc3)ccnc2c1 [Compound 251, 5-(4-Fluorophenyl)-N-[4-[(7-methoxy-1,5-naphthyridin-4-yl)oxy]phenyl]-1,6-dimethyl-4-oxopyridazine-3-carboxamide]
< 100 | < 100 | 100 to 300 | COc1ccc2nccc(Oc3ccc(NC(=O)c4n[nH]c(C)c(-c5ccc(F)cc5C)c4=O)cc3F)c2n1 [Compound 230, N-[3-Fluoro-4-[(6-methoxy-1,5-naphthyridin-4-yl)oxy]phenyl]-5-(4-fluoro-2-methylphenyl)-6-methyl-4-oxo-1H-pyridazine-3-carboxamide]
< 100 | 100 to 300 | 100 to 300 | COc1cc2nccc(Oc3ccc(NC(=O)c4cn(CC(F)(F)F)c(C)c(-c5ccc(F)cc5)c4=O)cc3F)c2cc1OC [Compound 259, N-[4-(6,7-Dimethoxyquinolin-4-yl)oxy-3-fluorophenyl]-5-(4-fluorophenyl)-6-methyl-4-oxo-1-(2,2,2-trifluoroethyl)pyridine-3-carboxamide]
